The record followed here is patent US8980899B2, “Methods of inhibiting Ire1” (The Regents of the University of California, priority 2009, dated 2015).

Assay [1] concerns the target Recombinant human Ire1-alpha (Homo sapiens, UniProt O75460). Description: In vitro inhibition assay, cleavage of 32P-stem-loop RNA by human Ire1. The format is biochemical. The conditions noted are these: for Ire1 activity: in vitro cleavage of 32P-stem-loop RNA by human Ire1, AD series, Control (no inhibitor) 8.8310e−3; for Ire1 activity with human Ire1 alpha: RNA cleavage, 1 μM Ire1, 32P-labeled RNA, 30° C., Control (no inhibitor) 0.085. Also noted: Ire1 activity with human Ire1 alpha: unit not given here. How it is done:
Recombinant human […]) was mixed with reaction buffer, inhibitor solution in DMSO, and ^32P-labeled RNA substrate having sequence 5'-[…] NO:1). Reactions were conducted at 30° C. and initiated by adding the RNA to reaction pre-mix containing all the components minus the RNA. […] (The reaction mixture may be modified by using different components or concentrations, different RNA substrate, or different Ire1 protein construct.) At time intervals (0 seconds, 10 seconds, 30 seconds, and 3 minutes), 1 μl aliquots of reaction mixture were taken and quenched in 10 M Urea, 0.1% SDS. Samples were analyzed by denaturing polyacrylamide gel electrophoresis and quantified using Typhoon phosphorImager. […] Reactions with Irestatin and exemplary compounds were conducted analogously. Irestatin was a gift obtained from the SPECS screen available as 5 mM solution in DMSO at UCSF small molecule discovery center.

The next assay addresses hIre1 (Homo sapiens, UniProt O75460). Kind of assay: Titrations of Ire1 inhibitors to measure Ki using 1 μM hIre1. The format is biochemical. The settings on record: 1 μM hIre1, 5′-32p-HP21, 30° C. How it is done: Recombinant human Ire1-alpha (1 μM f/c) was mixed with reaction buffer, inhibitor solution in DMSO, and ^32P-labeled RNA substrate having sequence 5′-UGCACCUCUGCAGCAGGUGCA (SEQ ID NO:1). Reactions were conducted at 30° C. and initiated by adding the RNA to reaction pre-mix containing all the components minus the RNA. The final reaction contained: 20 mM HEPES pH 7, 70 mM NaCl, 2 mM MgCl2, 5% glycerol, 4 mM DTT, 10% DMSO, 1 μM Ire1 and <1 nM 32P-labeled RNA. (The reaction mixture may be modified by using different components or concentrations, different RNA substrate, or different Ire1 protein construct.)
At time intervals (0 seconds, ˜10 seconds, ˜30 seconds, and ˜3 minutes), 1 μl aliquots of reaction mixture were taken and quenched in 10 M Urea, 0.1% SDS. Samples were analyzed by denaturing polyacrylamide gel electrophoresis and quantified using Typhoon phosphorImager.
Inhibition was measured by the extent of RNA cleavage slowdown in the presence of inhibitor (0.3-100 μM) compared to reaction containing no inhibitors.

Another assay has as its target T1, yeast Ire1 (Saccharomyces cerevisiae, UniProt P32361).
T1 sequence (P32361 19-1115): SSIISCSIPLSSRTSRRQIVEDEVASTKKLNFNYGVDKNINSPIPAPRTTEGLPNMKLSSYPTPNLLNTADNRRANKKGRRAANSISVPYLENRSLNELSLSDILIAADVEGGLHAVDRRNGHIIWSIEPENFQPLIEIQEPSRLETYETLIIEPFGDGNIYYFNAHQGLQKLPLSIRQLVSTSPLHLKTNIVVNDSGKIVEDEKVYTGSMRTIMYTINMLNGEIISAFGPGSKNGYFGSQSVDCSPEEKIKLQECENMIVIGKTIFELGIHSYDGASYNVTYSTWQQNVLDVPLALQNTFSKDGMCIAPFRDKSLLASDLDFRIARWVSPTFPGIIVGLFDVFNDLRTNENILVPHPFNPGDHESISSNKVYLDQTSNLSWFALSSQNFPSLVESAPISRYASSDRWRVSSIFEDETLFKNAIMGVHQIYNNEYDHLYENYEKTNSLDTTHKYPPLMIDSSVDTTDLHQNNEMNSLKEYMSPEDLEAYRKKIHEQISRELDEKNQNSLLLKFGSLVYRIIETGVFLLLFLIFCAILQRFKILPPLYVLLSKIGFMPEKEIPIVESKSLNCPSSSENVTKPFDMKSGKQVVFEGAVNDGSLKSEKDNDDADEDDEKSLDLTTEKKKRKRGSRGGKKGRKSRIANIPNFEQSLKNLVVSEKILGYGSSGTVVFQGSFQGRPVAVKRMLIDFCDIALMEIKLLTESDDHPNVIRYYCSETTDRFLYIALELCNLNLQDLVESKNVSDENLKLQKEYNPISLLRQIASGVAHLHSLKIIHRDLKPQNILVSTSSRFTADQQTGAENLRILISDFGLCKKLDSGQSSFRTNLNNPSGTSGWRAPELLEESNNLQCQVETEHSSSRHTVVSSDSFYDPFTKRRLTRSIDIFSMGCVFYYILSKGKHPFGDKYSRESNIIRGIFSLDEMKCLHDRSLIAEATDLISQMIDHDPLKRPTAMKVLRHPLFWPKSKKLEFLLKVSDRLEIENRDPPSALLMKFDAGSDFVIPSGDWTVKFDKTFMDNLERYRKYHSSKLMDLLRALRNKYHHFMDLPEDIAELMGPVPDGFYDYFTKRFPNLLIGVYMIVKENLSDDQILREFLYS
Description: In vitro inhibition assay, cleavage of 32P-labeled RNA by yeast Ire1. The format is biochemical. The settings on record: for Ire1 activity with yeast Ire1: RNA cleavage, 32P-labeled RNA, 30° C., Control (no inhibitor) 0.1149.

In a further assay the target is T2, yIre1 (Saccharomyces cerevisiae, UniProt P32361).
T2 sequence (P32361 19-1115): T1 sequence (P32361 19-1115)
Description: RNase cleavage assay (yIre1 activation). The format is biochemical, yeast. The settings on record: yIre1 RNA cleavage, 30° C., 2 mM ADP; Control (no inhibitor) 0.000504. How it is done:
RNA cleavage reactions were conducted at 30° C. in buffer containing 20 mM HEPES (pH 7.5), 70 mM NaCl, 2 mM ADP (pH 7.0), 2 mM Mg(OAc)2, 5 mM DTT, 5% glycerol, less than 1 nM ^32p-labeled RNA substrate, and 3 nM-[…] Ire1. Reaction solutions and buffers were designed using Biochem Lab Solutions 3.5. Reactions were prepared such that 1 μl of RNA was added to 9 μl of pre-warmed reaction mixture containing all components except RNA. Typically, 3-10 minute time courses were collected starting from 5 seconds for the first time point. At time intervals, 1 μl of solution was withdrawn from each reaction and mixed with 6 μl stop solution containing 10 M urea, 0.1% SDS, 0.1 mM EDTA, 0.05% xylene cyanol, and 0.05% bromophenol blue. The samples were separated by a denaturing 10% PAGE and exposed on a phosphor storage screen. The screens were scanned on a Storm or a Typhoon instrument and quantified using ImageQuant 5.0 or GelQuant.NET 1.4 programs. The data were plotted and fit in SigmaPlot 6.0.

Structures are written as SMILES.

Chain of Recombinant human Ire1-alpha (O75460 19-977): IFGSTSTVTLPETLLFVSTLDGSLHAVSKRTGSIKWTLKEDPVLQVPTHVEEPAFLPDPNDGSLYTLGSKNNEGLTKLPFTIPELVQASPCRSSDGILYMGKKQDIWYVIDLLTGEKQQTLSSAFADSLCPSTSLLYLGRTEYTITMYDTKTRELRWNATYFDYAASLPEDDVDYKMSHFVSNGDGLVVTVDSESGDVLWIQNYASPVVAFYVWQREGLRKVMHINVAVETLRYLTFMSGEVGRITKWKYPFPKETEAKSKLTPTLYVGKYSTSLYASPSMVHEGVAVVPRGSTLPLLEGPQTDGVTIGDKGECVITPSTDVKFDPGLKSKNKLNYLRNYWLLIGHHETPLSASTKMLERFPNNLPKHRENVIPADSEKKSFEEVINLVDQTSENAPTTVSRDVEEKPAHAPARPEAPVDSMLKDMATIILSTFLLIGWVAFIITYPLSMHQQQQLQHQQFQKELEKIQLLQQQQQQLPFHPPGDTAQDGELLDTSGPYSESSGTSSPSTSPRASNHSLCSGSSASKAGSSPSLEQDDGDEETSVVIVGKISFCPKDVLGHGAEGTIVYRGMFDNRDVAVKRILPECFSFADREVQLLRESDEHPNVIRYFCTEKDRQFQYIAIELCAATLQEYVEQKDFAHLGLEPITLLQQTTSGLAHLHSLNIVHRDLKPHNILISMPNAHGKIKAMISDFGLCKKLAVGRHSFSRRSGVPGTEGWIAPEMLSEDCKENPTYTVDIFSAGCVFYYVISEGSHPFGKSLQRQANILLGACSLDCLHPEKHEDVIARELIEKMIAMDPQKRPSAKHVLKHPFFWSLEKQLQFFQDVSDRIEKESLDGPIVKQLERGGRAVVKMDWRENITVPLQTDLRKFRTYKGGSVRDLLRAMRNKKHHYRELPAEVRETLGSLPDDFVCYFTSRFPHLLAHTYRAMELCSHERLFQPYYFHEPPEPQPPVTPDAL
Chain of hIre1 (O75460 19-977): as above

On to `Nc1ncnc2c1c(-c1ccc(NC(=O)c3cccc(C(F)(F)F)c3)cc1)nn2[C@@H]1CCOC1` [AD68, N-(4-(4-amino-1-((R)-tetrahydrofuran-3-yl)-1H-pyrazolo[3,4-d]pyrimidin-3-yl)phenyl)-3-(trifluoromethyl)benzamide], for which the Ire1 activity in assay [1] was 8.4550e−3. The Ki is the equilibrium dissociation constant of an inhibitor or competing ligand from its target. With `Nc1ncnc2c1c(-c1ccc(NC(=O)c3cccc(C(F)(F)F)c3)cc1)nn2CCCO` [AD65], the inhibition constant (Ki) at hIre1 is roughly 30 µM. Take `Nc1ncnc2c1c(-c1ccc(NC(=O)Nc3cccc(C(F)(F)F)c3)cc1)nn2[C@H]1CCN(C(=O)Nc2cccc(C(F)(F)F)c2)C1` [AD71c]: in assay [1], the Ire1 activity was 1.2650e−3. Turning to `Nc1ncnc2c1c(-c1ccc(NC(=O)c3cccc(C(F)(F)F)c3)cc1)nn2[C@H]1CCOC1` [AD67, N-(4-(4-amino-1-((S)-tetrahydrofuran-3-yl)-1H-pyrazolo[3,4-d]pyrimidin-3-yl)phenyl)-3-(trifluoromethyl)benzamide], the Ire1 activity in assay [1] came to 0.0100. Same read-out and setting: for `Nc1ncnc2c1c(-c1ccc(NC(=O)c3cccc(C(F)(F)F)c3)cc1)nn2[C@H]1CCNC1` [AD70, N-(4-(4-amino-1-((S)-pyrrolidin-3-yl)-1H-pyrazolo[3,4-d]pyrimidin-3-yl)phenyl)-3-(trifluoromethyl)benzamide] the value was 9.0580e−3. For the compound `CNC(=O)c1cc(Oc2ccc(NC(=O)Nc3ccc(Cl)c(C(F)(F)F)c3)cc2)ccn1` [Sorafenib, reference compound], the “Ire1 activity with human Ire1 alpha” value in assay [1] amounted to 0.03645. Further, the “Ire1 activity with yeast Ire1” value on yeast Ire1 was 0.0683. `Nc1ncnc2c1c(-c1ccc(NC(=O)Nc3cccc(C(F)(F)F)c3)cc1)nn2C1CCCC1` [AD60, 1-(4-(4-amino-1-cyclopentyl-1H-pyrazolo[3,4-d]pyrimidin-3-yl)phenyl)-3-(3-(trifluoromethyl)phenyl)urea]: in assay [1], the “inhibition of hIre1 (in words)” value was “can inhibit”, the “Ire1 activity with human Ire1 alpha” value was 0.02258 and the Ire1 activity turned out to be 4.0180e−3. At yeast Ire1, the “inhibition of yIre1 (in words)” value is “can inhibit” and the “Ire1 activity with yeast Ire1” value was 2.42E−03. On yIre1, this compound had an Ire1 activity of 4.04E−05. In the case of `Nc1ncnc2c1c(Cc1cccc(NC(=O)Nc3cccc(C(F)(F)F)c3)c1)nn2Cc1ccccc1` [BB6, 1-(3-((4-amino-1-benzyl-1H-pyrazolo[3,4-d]pyrimidin-3-yl)methyl)phenyl)-3-(3-(trifluoromethyl)phenyl)urea], the “Ire1 activity with human Ire1 alpha” value in assay [1] is recorded as 0.1506. At yeast Ire1, the “Ire1 activity with yeast Ire1” value turned out to be 3.00E−03.

With `Nc1ncnc2c1c(-c1ccc(NC(=O)Nc3cccc(C(F)(F)F)c3)cc1)nn2[C@H]1CCOC1` [AD66, 1-(4-(4-amino-1-((S)-tetrahydrofuran-3-yl)-1H-pyrazolo[3,4-d]pyrimidin-3-yl)phenyl)-3-(3-(trifluoromethyl)phenyl)urea], in assay [1], the Ire1 activity stood at 0.0107. In the case of `CC(C)n1nc(-c2ccc(NC(=O)Nc3cccc(C(F)(F)F)c3)cc2)c2c(N)ncnc21` [AD57, 1-(4-(4-amino-1-isopropyl-1H-pyrazolo[3,4-d]pyrimidin-3-yl)phenyl)-3-(3-(trifluoromethyl)phenyl)urea], in assay [1], the “Ire1 activity with human Ire1 alpha” value amounted to 0.05508. Besides, the “Ire1 activity with yeast Ire1” value at yeast Ire1 is given as 3.26E−03. For `Nc1ncnc2c1c(Cc1cccc(NC(=O)c3cccc(C(F)(F)F)c3)c1)nn2Cc1ccccc1` [BB5, N-(3-((4-amino-1-benzyl-1H-pyrazolo[3,4-d]pyrimidin-3-yl)methyl)phenyl)-3-(trifluoromethyl)benzamide] the same measures were 0.1247 and 5.00E−03. At hIre1, `Nc1ncnc2c1c(-c1ccc(NC(=O)Nc3cccc(C(F)(F)F)c3)cc1)nn2CCCO` [AD64] displayed an inhibition constant Ki of roughly 1 µM. For the same compound, the Ire1 activity in assay [1] was determined as 6.9280e−4. Take `Nc1ncnc2c1c(-c1ccc(NC(=O)Nc3cccc(C(F)(F)F)c3)cc1)nn2[C@@H]1CCOC1` [AD69, 1-(4-(4-amino-1-((R)-tetrahydrofuran-3-yl)-1H-pyrazolo[3,4-d]pyrimidin-3-yl)phenyl)-3-(3-(trifluoromethyl)phenyl)urea]: the Ire1 activity in assay [1] was determined as 0.0127. As to `CC(C)n1nc(Cc2cccc(NC(=O)Nc3cccc(C(F)(F)F)c3)c2)c2c(N)ncnc21` [AD36, 1-(3-((4-amino-1-isopropyl-1H-pyrazolo[3,4-d]pyrimidin-3-yl)methyl)phenyl)-3-(3-(trifluoromethyl)phenyl)urea], in assay [1], the “Ire1 activity with human Ire1 alpha” value worked out at 0.09575. In addition, the “Ire1 activity with yeast Ire1” value at yeast Ire1 worked out at 1.05E−03. Besides, at yIre1, the Ire1 activity is recorded as 0.000322. As for `Nc1ncnc2c1c(-c1ccc(NC(=O)c3cccc(C(F)(F)F)c3)cc1)nn2[C@@H]1CCNC1` [AD72, N-(4-(4-amino-1-((R)-pyrrolidin-3-yl)-1H-pyrazolo[3,4-d]pyrimidin-3-yl)phenyl)-3-(trifluoromethyl)benzamide], the Ire1 activity in assay [1] came to 6.4950e−3.
